Where two headings read alike, the source gives them in different places. Positions of bridges follow the written chain, without caps; N, C: chain ends. Non-standard residues stand in square brackets, D forms with d. Residues, ends and D or L forms follow the SMILES beside them. Chains are numbered I, II in the order given. βAla = NCCC(=O)O
Columns and labels:
[1] = Toxicokinetics in dogs, 4 weeks daily 1-h iv infusion; type: in vivo; details: dog; for Cmax / tmax / AUC0-24 / AUC(0-t): iv
Method: Plasma concentrations and the main toxicokinetic parameters of SET-M33 in plasma samples were determined in beagle dogs after intravenous administration of SET-M33 by daily 1-h-infusion at 0.5, 1.5 or 4.0 mg/kg/day or only vehicle for 4 weeks (5 animals/group/sex). Blood samples were taken on day 1 and day 28.
The time when the maximum plasma concentration occurred (Tmax) was at the end of the 1-h infusion in all animals, as expected for this route of administration. Plasma concentrations of SET-M33 at 24 h post-dose were below the limit of quantification (< 20.0 ng/ml) in all animals at all dose levels on day 1 and day 28 (not shown).
On days 1 and 28, blood samples were obtained for toxicokinetic determinations from all animals at the following times: Day 1 at the end of infusion and 5, 10, 15, 30, 60 and 180 min later; […] and 24 h ± 30 min post-dose; Day 28 at the end of infusion and 5, 10, 15, 30, 60 and 180 min later; […] and 24 h ± 30 min post-dose. Blood samples were collected into lithium heparin test tubes and kept in an ice bath until centrifuging (1600 g for 10 min at 2–8 °C). The plasma obtained from each sample was transferred to a fresh polypropylenes test tubes, immediately frozen in dry ice and stored at − 20 °C ± 5. Bioanalytical samples were analysed by a validated liquid chromatographic mass spectrometric assay. Pharmacokinetic parameters were calculated using the computer program Phoenix WinNonlin version 6.3 (Certara USA, Inc).

mouse = details: cited from earlier work
Sprague Dawley rats = experiment: Four-week toxicity study with 2-week recovery in rats: mortality, clinical signs, body weight; type: in vivo, rat; details: for weight loss of euthanized animal: 15 mg/kg/day
Method: The purpose of this study was to evaluate the toxic effects of SET-M33 when administered intravenously to Sprague Dawley rats for 4 weeks. Recovery was evaluated during a 14-day drug-free period. The peptide was administered once a day at three dose levels at 5, 9 and 15 mg/kg/day, and the control group was treated with the vehicle (ten males and ten females per group which were sacrificed after 4 weeks for clinical and necroscopy analyses; five males and five females for the control and 15 mg/kg/day groups which were sacrificed after the 2 weeks recovery period). The higher dose was selected on the basis of the DRF study (above) in which evident toxicity was recorded at the dose of 20 mg/kg. The efficacy dose in mouse is 5 mg/kg[24]. The lowest dose of this test is approximately twice the equivalent efficacy dose in rat (using body surface area) and the intermediate dose is approximately the geometric mean of the other two.
One male died on day 8 and one male and one female were euthanized for animal welfare reasons on days 6 and 10 of the recovery period, respectively, after showing various clinical signs (hunched back, abnormal gait and pallor) and weight loss of 14% and 11%, respectively. SET-M33-related effects consisting of decreased motor activity, irregular breathing, piloerection, closed or partially closed eyelids, abnormal gait and hunched back were recorded in animals treated at 15 mg/kg/day just after administration for the whole treatment period (as in the DRF study above). […] Among animals that had to be sacrificed for welfare reasons, abnormal gait, partially closed eyelids (the male) and decreased motor activity and piloerection (the female) were also recorded from day 3 onwards. […] During the recovery period, body-weight loss (between 2 and 14% based on individual values) was recorded in some animals dosed at 15 mg/kg/day.
Viability/mortality was monitored twice daily throughout the study. Detailed clinical signs were evaluated once at pre-test, once/twice daily during the treatment period and on days 1, 8, 10 to 14 of the recovery period. […]

[2] = female, beagle, in vivo, 4 mg/kg/day
[3] = male, beagle, in vivo, 0.5 mg/kg/day
[4] = male, beagle, in vivo, 4 mg/kg/day

CC[C@H](C)[C@H](NC(=O)[C@H](CCCCN)NC(=O)[C@@H](N)CCCCN)C(=O)N[C@@H](CCCNC(=N)N)C(=O)N[C@H](C(=O)N[C@@H](CCCNC(=N)N)C(=O)N[C@@H](CC(C)C)C(=O)N[C@@H](CO)C(=O)N[C@@H](C)C(=O)NCCCC[C@H](NC(=O)[C@H](C)NC(=O)[C@H](CO)NC(=O)[C@H](CC(C)C)NC(=O)[C@H](CCCNC(=N)N)NC(=O)[C@@H](NC(=O)[C@H](CCCNC(=N)N)NC(=O)[C@@H](NC(=O)[C@H](CCCCN)NC(=O)[C@@H](N)CCCCN)[C@@H](C)CC)C(C)C)C(=O)NCCCC[C@H](NC(=O)[C@H](CCCCNC(=O)[C@H](C)NC(=O)[C@H](CO)NC(=O)[C@H](CC(C)C)NC(=O)[C@H](CCCNC(=N)N)NC(=O)[C@@H](NC(=O)[C@H](CCCNC(=N)N)NC(=O)[C@@H](NC(=O)[C@H](CCCCN)NC(=O)[C@@H](N)CCCCN)[C@@H](C)CC)C(C)C)NC(=O)[C@H](C)NC(=O)[C@H](CO)NC(=O)[C@H](CC(C)C)NC(=O)[C@H](CCCNC(=N)N)NC(=O)[C@@H](NC(=O)[C@H](CCCNC(=N)N)NC(=O)[C@@H](NC(=O)[C@H](CCCCN)NC(=O)[C@@H](N)CCCCN)[C@@H](C)CC)C(C)C)C(=O)NCCC(=O)O)C(C)C [SET-M33] (I: H-KKIRVRLSAKK[βAla]-OH / II: H-KKIRVRLSAK / III: H-KKIRVRLSA / IV: H-KKIRVRLSA; amide I:10-IV:C, I:11-II:C, II:10-III:C (inferred); N-terminus and C-terminus assumed)
Cmax and AUC0-24 relative to values predicted for a linear relationship ([1]; in vivo, 4 mg/kg/day): approximately 2.1 times | Cmax ([1]; in vivo, 0.5 mg/kg/day): 82.8 ± 19.1 ng/mL | tmax ([1]; in vivo, 0.5 mg/kg/day): EOI | tmax ([1]; in vivo, 1.5 mg/kg/day): EOI | tmax ([1]; in vivo, 4 mg/kg/day): EOI | AUC0-24 ([1]; female, beagle, in vivo, 0.5 mg/kg/day): 45.6 ± 10.4 ng·h/mL | AUC(0-t) ([1]; female, beagle, in vivo, 0.5 mg/kg/day, AUC0-24): 76.5 ± 25.2 ng·h/mL | Cmax ([1]; female, beagle, in vivo, 0.5 mg/kg/day, Cmax): 125 ± 35 ng/mL | Cmax ([1]; female, beagle, in vivo, 1.5 mg/kg/day): 345 ± 87 ng/mL | Cmax ([1]; female, beagle, in vivo, 1.5 mg/kg/day, Cmax): 645 ± 121 ng/mL | AUC0-24 [1, 2]: 991 ± 161 ng·h/mL | Cmax [1, 2]: 1360 ± 220 ng/mL | AUC(0-t) ([1]; female, beagle, in vivo, 4 mg/kg/day, AUC0-24): 1550 ± 450 ng·h/mL | Cmax ([1]; female, beagle, in vivo, 4 mg/kg/day, Cmax): 1930 ± 350 ng/mL | AUC0-24 [1, 3]: 42.2 ± 13.3 ng·h/mL | Cmax [1, 3]: 82.4 ± 22.4 ng/mL | AUC(0-t) ([1]; male, beagle, in vivo, 0.5 mg/kg/day, AUC0-24): 83 ± 9.8 ng·h/mL | Cmax ([1]; male, beagle, in vivo, 0.5 mg/kg/day, Cmax): 149 ± 16 ng/mL | Cmax ([1]; male, beagle, in vivo, 1.5 mg/kg/day): 274 ± 110 ng/mL | AUC(0-t) ([1]; male, beagle, in vivo, 1.5 mg/kg/day, AUC0-24): 157 ± 60 ng·h/mL | Cmax ([1]; male, beagle, in vivo, 1.5 mg/kg/day, Cmax): 470 ± 218 ng/mL | AUC0-24 [1, 4]: 569 ± 99 ng·h/mL | Cmax [1, 4]: 816 ± 188 ng/mL | AUC(0-t) ([1]; male, beagle, in vivo, 4 mg/kg/day, AUC0-24): 1050 ± 150 ng·h/mL | Cmax ([1]; male, beagle, in vivo, 4 mg/kg/day, Cmax): 1490 ± 440 ng/mL | AUC(0-t) ([1]; male, beagle, plasma, 1.5 mg/kg/day, male dogs, 1.5 mg/kg/day 1-h iv infusion, day 28, plasma, LC-MS, mean ± SD, n=5, read-out: AUC0-24): 416 ± 209 ng·h/mL | efficacy dose (mouse): 5 mg/kg | weight loss of euthanized animal (Sprague Dawley rats; one female rat, euthanized day 10 of recovery): 11% | weight loss of euthanized animal (Sprague Dawley rats; one male rat, euthanized day 6 of recovery): 14% | mortality (Sprague Dawley rats; rats, 5, 9 and 15 mg/kg/day iv 4 weeks + 2-week recovery): Mortality was only recorded at 15 mg/kg/day
